Experimental data published in patent publication US20230107642A1 (Erasca, Inc., priority 2020, published 2023).

Molecular target: T1, K-Ras G12C (Homo sapiens, UniProt P01116, G12C)
T1 construct: This protein contained 188 amino acids in total, including an N-terminal 6-Histidine tag; made in house; host or cells: E. coli BL21
Experiment: CAF assay (% CAF; method in Example 7, not in this part)
Assay type: binding
Conditions: for % CAF 10 uM @ 60 min: Table 2a; for % CAF @ 10 μM, 1 h: Table 4

Row | % CAF @ 10 uM, 1h (10 uM, 1 h, Table 3) | % CAF @ 10 uM, 1h (10 uM compound, 1 h incubation) | Compound | further results
1 | 70% | – | C=CC(=O)N1CCN(c2nc(=O)n3c4c(c(-c5cc(F)cc(F)c5)c(Cl)cc24)SCC3)[C@@H](C)C1 [Example 66, (S)-7-(4-acryloyl-2-methylpiperazin-1-yl)-9-chloro-10-(3,5-difluorophenyl)-2,3-dihydro-5H-[1,4]thiazino[2,3,4-ij]quinazolin-5-one] | % CAF 10 uM @ 60 min (10 uM): 91%
2 | – | 53.4% | C=CC(=O)N1C[C@H](C)N(c2nc(=O)n3c4c(c(-c5ccc(F)cc5F)c(Cl)cc24)SC[C@@H]3CN2CCN(C3CC3)CC2)C[C@H]1C [Example 551, (3S)-7-((2S,5R)-4-acryloyl-2,5-dimethylpiperazin-1-yl)-9-chloro-3-((4-cyclopropylpiperazin-1-yl)methyl)-10-(2,4-difluorophenyl)-2H-[1,4]thiazino[2,3,4-ij]quinazolin-5(3H)-one] | –
3 | – | 91% | C=CC(=O)N1CCN(c2nc(=O)n3c4c(c(-c5cc(Cl)c(F)cc5F)c(C(F)(F)F)cc24)SC[C@@H](OC)C3)[C@@H](C)C1 [Example 583, (3S)-8-((S)-4-acryloyl-2-methylpiperazin-1-yl)-11-(5-chloro-2,4-difluorophenyl)-3-methoxy-10-(trifluoromethyl)-3,4-dihydro-2H,6H-[1,4]thiazepino[2,3,4-ij]quinazolin-6-one] | –
4 | 0% | – | C=CC(=O)N1CCN(c2nc(=O)n3c4c(c(-c5cccc6cnn(C)c56)c(Cl)cc24)SCC3)[C@@H](C)C1 (atropisomer, axis not shown) [Example 107, (S)-7-((S)-4-acryloyl-2-methylpiperazin-1-yl)-9-chloro-10-(1-methyl-1H-indazol-7-yl)-2,3-dihydro-5H-[1,4]thiazino[2,3,4-ij]quinazolin-5-one] | –
5 | – | – | C=CC(=O)N1CCN(c2nc(=O)n3c4c(c(-c5c(F)cc(F)cc5F)c(Cl)cc24)SC[C@@H]3CC2CCN(C)CC2)[C@@H](C)C1 [Example 343, (S)-7-((S)-4-acryloyl-2-methylpiperazin-1-yl)-9-chloro-3-((1-methylpiperidin-4-yl)methyl)-10-(2,4,6-trifluorophenyl)-2H-[1,4]thiazino[2,3,4-ij]quinazolin-5(3H)-one] | % CAF @ 10 μM, 1 h (1 h): 96.7%
6 | – | 63.5% | C=CC(=O)N1CCN(c2nc(=O)n3c4c(c(-c5ccc(F)cc5Cl)c(Cl)cc24)SCC3)[C@@H](C)C1 [Example 427, 7-((S)-4-acryloyl-2-methylpiperazin-1-yl)-9-chloro-10-(2-chloro-4-fluorophenyl)-2,3-dihydro-5H-[1,4]thiazino[2,3,4-ij]quinazolin-5-one] | –
7 | 55.3% | – | C=CC(=O)N1CCN(c2nc(=O)n3c4c(c(-c5cc(O)ccc5F)c(Cl)cc24)SCC3)[C@@H](C)C1 [Example 152, 7-((S)-4-acryloyl-2-methylpiperazin-1-yl)-9-chloro-10-(2-fluoro-5-hydroxyphenyl)-2,3-dihydro-5H-[1,4]thiazino[2,3,4-ij]quinazolin-5-one] | –
8 | – | 96% | C=CC(=O)N1CCN(c2nc(=O)n3c4c(c(-c5ccc(F)cc5F)c(C(F)(F)F)cc24)SC[C@@H](OC)C3)CC1 [Example 489, (3S)-8-(4-acryloylpiperazin-1-yl)-11-(2,4-difluorophenyl)-3-methoxy-10-(trifluoromethyl)-3,4-dihydro-2H,6H-[1,4]thiazepino[2,3,4-ij]quinazolin-6-one] | –
9 | – | 97% | C=CC(=O)N1[C@H](C)CN(c2nc(=O)n3c4c(c(-c5ccc(F)cc5)c(C(F)(F)F)cc24)SC[C@@H](OC)C3)C[C@@H]1C [Example 585, (S)-8-((3S,5R)-4-acryloyl-3,5-dimethylpiperazin-1-yl)-11-(4-fluorophenyl)-3-methoxy-10-(trifluoromethyl)-3,4-dihydro-2H,6H-[1,4]thiazepino[2,3,4-ij]quinazolin-6-one] | –
10 | – | 77.6% | C=CC(=O)N1CCN(c2nc(=O)n3c4c(c(-c5cc(Cl)c(F)cc5F)c(Cl)cc24)SC[C@@H]3CN2CCC3(CC2)COC3)[C@@H](C)C1 [Example 456, (3S)-3-(2-oxa-7-azaspiro[3.5]nonan-7-ylmethyl)-7((S)-4-acryloyl-2-methylpiperazin-1-yl)-9-chloro-10-(5-chloro-2,4-difluorophenyl)-2H-[1,4]thiazino[2,3,4-ij]quinazolin-5(3H)-one] | –
11 | 96.7% | – | C=CC(=O)N1CCN(c2nc(=O)n3c4c(c(-c5c(F)cc(F)cc5F)c(Cl)cc24)SC[C@@H]3CC2CCN(C)CC2)[C@@H](C)C1 [Example 92, (S)-7-((S)-4-acryloyl-2-methylpiperazin-1-yl)-9-chloro-3-((1-methylpiperidin-4-yl)methyl)-10-(2,4,6-trifluorophenyl)-2,3-dihydro-5H-[1,4]thiazino[2,3,4-ij]quinazolin-5-one] | –
12 | – | 92% | C=CC(=O)N1[C@H](C)CN(c2nc(=O)n3c4c(c(-c5cc(Cl)c(F)cc5F)c(Cl)cc24)SC[C@@H](OC)C3)C[C@@H]1C [Example 530, (3S)-8-((3S,5R)-4-acryloyl-3,5-dimethylpiperazin-1-yl)-10-chloro-11-(5-chloro-2,4-difluorophenyl)-3-methoxy-3,4-dihydro-2H,6H-[1,4]thiazepino[2,3,4-ij]quinazolin-6-one] | –
13 | – | 2.6% | C=CC(=O)N1CCN(c2nc(=O)n3c4c(c(-c5ccc(F)cc5F)c(Cl)cc24)SC[C@H]3COC2CN(CC)C2)[C@@H](C)C1 [Example 432, (3R)-7-((S)-4-acryloyl-2-methylpiperazin-1-yl)-9-chloro-10-(2,4-difluorophenyl)-3-(((1-ethylazetidin-3-yl)oxy)methyl)-2,3-dihydro-5H-[1,4]thiazino[2,3,4-ij]quinazolin-5-one] | –
14 | – | 87.8% | C=CC(=O)N1CCN(c2nc(=O)n3c4c(c(-c5ccc(F)cc5)c(Cl)cc24)SC[C@@H]3CN2CCC3(CC2)COC3)[C@@H](C)C1 [Example 462, (S)-3-(2-oxa-7-azaspiro[3.5]nonan-7-ylmethyl)-7-((S)-4-acryloyl-2-methylpiperazin-1-yl)-9-chloro-10-(4-fluorophenyl)-2H-[1,4]thiazino[2,3,4-ij]quinazolin-5(3H)-one] | –
15 | – | – | C=CC(=O)N1CCN(c2nc(=O)n3c4c(c(-c5ccc(F)cc5F)c(Cl)cc24)SC[C@H]3CN2CCN(CC(F)F)CC2)[C@@H](C)C1 [Example 347, (3R)-7-((S)-4-acryloyl-2-methylpiperazin-1-yl)-9-chloro-3-((4-(2,2-difluoroethyl)piperazin-1-yl)methyl)-10-(2,4-difluorophenyl)-2H-[1,4]thiazino[2,3,4-ij]quinazolin-5(3H)-one] | % CAF @ 10 μM, 1 h (1 h): 82.5%
16 | – | 91.6% | C=CC(=O)N1C[C@H](C)N(c2nc(=O)n3c4c(c(-c5ccc(F)cc5F)c(Cl)cc24)SC[C@@H]3CN2CCN(CC(F)F)CC2)C[C@H]1C [Example 550, (3S)-7-((2S,5R)-4-acryloyl-2,5-dimethylpiperazin-1-yl)-9-chloro-3-((4-(2,2-difluoroethyl)piperazin-1-yl)methyl)-10-(2,4-difluorophenyl)-2H-[1,4]thiazino[2,3,4-ij]quinazolin-5(3H)-one] | –
17 | 79.8% | – | C=CC(=O)N1CCN(c2nc(=O)n3c4c(c(-c5cc(Cl)ccc5F)c(Cl)cc24)SCC3)[C@@H](C)C1 [Example 175, 7-((S)-4-acryloyl-2-methylpiperazin-1-yl)-9-chloro-10-(5-chloro-2-fluorophenyl)-2,3-dihydro-5H-[1,4]thiazino[2,3,4-ij]quinazolin-5-one] | –
18 | 90.7% | – | C=CC(=O)N1CCN(c2nc(=O)n3c4c(c(-c5c(F)cc(F)cc5F)c(Cl)cc24)SCC3)[C@@H](C)C1 [Example 146, (S)-7-(4-acryloyl-2-methylpiperazin-1-yl)-9-chloro-10-(2,4,6-trifluorophenyl)-2,3-dihydro-5H-[1,4]thiazino[2,3,4-ij]quinazolin-5-one] | –
19 | 75% | – | C=C(F)C(=O)N1CCN(c2nc(=O)n3c4c(c(-c5cc(F)cc(Cl)c5)c(Cl)cc24)SCC3)[C@@H](C)C1 [Example 64, (S)-9-chloro-10-(3-chloro-5-fluorophenyl)-7-(4-(2-fluoroacryloyl)-2-methylpiperazin-1-yl)-2,3-dihydro-5H-[1,4]thiazino[2,3,4-ij]quinazolin-5-one] | % CAF 10 uM @ 60 min (10 uM): 3%
20 | – | 92.9% | [2H]C1([2H])N(C(=O)C=C)C([2H])([2H])C([2H])([2H])N(c2nc(=O)n3c4c(c(-c5ccc(F)cc5F)c(C(F)(F)F)cc24)SCC2(COC2)C3)C1([2H])[2H] [Example 589, 8′-(4-Acryloylpiperazin-1-yl-2,2,3,3,5,5,6,6-d8)-11′-(2,4-difluorophenyl)-10′-(trifluoromethyl)-2′H,4′H,6′H-spiro[oxetane-3,3′-[1,4]thiazepino[2,3,4-ij]quinazolin]-6′-one] | –
21 | 75.9% | – | C=CC(=O)N1CCN(c2nc(=O)n3c4c(c(-c5c(F)cccc5F)c(Cl)cc24)SCC3)[C@@H](C)C1 [Example 170, (S)-7-(4-acryloyl-2-methylpiperazin-1-yl)-9-chloro-10-(2,6-difluorophenyl)-2,3-dihydro-5H-[1,4]thiazino[2,3,4-ij]quinazolin-5-one] | –
22 | – | 61% | C=CC(=O)N1CCN(c2nc(=O)n3c4c(c(-c5ccc(F)cc5F)c(C(F)(F)F)cc24)S(=O)(=O)C[C@@H]3CC2CCN(CC(F)F)CC2)[C@@H](C)C1 [Example 429, (3S)-7-((S)-4-acryloyl-2-methylpiperazin-1-yl)-3-((1-(2,2-difluoroethyl)piperidin-4-yl)methyl)-10-(2,4-difluorophenyl)-9-(trifluoromethyl)-2H-[1,4]thiazino[2,3,4-ij]quinazolin-5(3H)-one 1,1-dioxide] | –
23 | – | – | C=CC(=O)N1CCN(c2nc(=O)n3c4c(c(-c5ccc(F)cc5F)c(Cl)cc24)SC[C@@H]3CN2CCN(CC)CC2)[C@@H](C)C1 [Example 354, (3S)-7-((S)-4-acryloyl-2-methylpiperazin-1-yl)-9-chloro-10-(2,4-difluorophenyl)-3-((4-ethylpiperazin-1-yl)methyl)-2H-[1,4]thiazino[2,3,4-ij]quinazolin-5(3H)-one] | % CAF @ 10 μM, 1 h (1 h): 96%
